Source: ChEMBL document CHEMBL5143686, “Development of Azaindole-Based Frameworks as Potential Antiviral Agents and Their Future Perspectives” (J Med Chem, 2022)
≈ marks a conversion by molar mass, not a printed value. Blank lines part the entries; values can stand above or below the molecule they belong to.

Columns and labels:
[1] = Solubility of the compound at pH 5.4; format: physicochemical; conditions: buffer
[2] = tested on: Human immunodeficiency virus 1; test: Antiviral activity against HIV-1 assessed as inhibition of viral growth; format: functional, organism-based
[3] = Oral bioavailability in rat; format: ADME, organism-based; conditions: in vivo
[4] = Oral bioavailability in monkey; format: ADME, organism-based, Macaca mulatta; conditions: rhesus monkey, in vivo
[5] = tested on: Human immunodeficiency virus 1; test: Antiviral activity against HIV-1 LAI T-tropic (X4) infected in human MT2 cells assessed as inhibition of viral growth by ELISA; format: functional, organism-based; conditions: Human immunodeficiency virus 1, LAI T-tropic (X4)
[6] = tested on: Human immunodeficiency virus 1; test: Antiviral activity against HIV-1 SF-2 T-tropic (X4) infected in human MT2 cells assessed as inhibition of viral growth by ELISA; format: functional, organism-based; conditions: Human immunodeficiency virus 1, SF-2 T-tropic (X4)
[7] = tested on: Human immunodeficiency virus 1; test: Antiviral activity against HIV-1 NL4-3 T-tropic (X4) infected in human MT2 cells assessed as inhibition of viral growth by ELISA; format: functional, organism-based; conditions: Human immunodeficiency virus 1, NL4-3 T-tropic (X4)
[8] = tested on: Human immunodeficiency virus 1; test: Antiviral activity against HIV-1 Bal macrophage-tropic (R5) infected in human PM1 cells assessed as inhibition of viral growth by ELISA; format: functional, organism-based; conditions: Human immunodeficiency virus 1, Bal macrophage-tropic (R5)
[9] = tested on: Human immunodeficiency virus 1; test: Antiviral activity against HIV-1 SF-162 macrophage-tropic (R5) infected in human PM1 cells assessed as inhibition of viral growth by ELISA; format: functional, organism-based; conditions: Human immunodeficiency virus 1, SF-162 macrophage-tropic (R5)
[10] = tested on: Human immunodeficiency virus 1; test: Antiviral activity against HIV-1 JRFL macrophage-tropic (R5) infected in human PM1 cells assessed as inhibition of viral growth by ELISA; format: functional, organism-based; conditions: Human immunodeficiency virus 1, JRFL macrophage-tropic (R5)
[11] = tested on: Human immunodeficiency virus 1; test: Antiviral activity against HIV-1 TLAV T-tropic (X4)/macrophage-tropic (R5) infected in human MT2 cells assessed as inhibition of viral growth by ELISA; format: functional, organism-based; conditions: Human immunodeficiency virus 1, TLAV T-tropic (X4)/macrophage-tropic (R5)
[12] = Aqueous solubility of the compound; format: physicochemical
[13] = Oral bioavailability in dog; format: ADME, organism-based, Canis lupus familiaris; conditions: in vivo
[14] = tested on: Human immunodeficiency virus 1; test: Antiviral activity against HIV-1 JR-CSF assessed as inhibition of viral growth; format: functional, organism-based; conditions: Human immunodeficiency virus 1, JR-CSF
[15] = Basic dissociation constant, pKa of the compound

SMILES: O=C(C(=O)N1CCN(C(=O)c2ccccc2)CC1)c1c[nH]c2c(-c3nccs3)ccc(F)c12
- EC50 [2]: 0.057 nM

SMILES: COc1ncc(OC)c2c(C(=O)C(=O)N3CCN(C(=O)c4ccccc4)CC3)c[nH]c12
- bioavailability [3]: 90%
- bioavailability [4]: 60%

SMILES: COc1ccnc2[nH]cc(C(=O)C(=O)N3CCN(C(=O)c4ccccc4)C[C@@H]3C)c12
- EC50 [5]: 2.68 nM
- EC50 [6]: 26.5 nM
- EC50 [7]: 2.94 nM
- EC50 [8]: 15.5 nM
- EC50 [9]: 3.46 nM
- EC50 [10]: 1.47 nM
- EC50 [11]: 0.85 nM
- solubility [12]: 170 µg/mL (≈ 418 µM)
- bioavailability [3]: 19%
- bioavailability [13]: 77%
- bioavailability [4]: 24%

SMILES: Cc1csc(-c2ccc(F)c3c(C(=O)C(=O)N4CCN(C(=O)c5ccccc5)CC4)c[nH]c23)n1
- EC50 [2]: 0.0058 nM

SMILES: Cc1ncn(-c2ncc(F)c3c(C(=O)C(=O)N4CC5CN(C(=O)c6ccccc6)CC5C4)c[nH]c23)n1 (stereo not given)
- IC50 [14]: 0.8 nM

SMILES: c1cc2cc[nH]c2cn1
- pKa [15]: 7.93

The remaining lines, values ahead:

- solubility [1]: > 12000 µg/mL
SMILES: COc1cnc(OC)c2c1c(C(=O)C(=O)N1CCN(C(=O)c3ccccc3)CC1)cn2COP(=O)(O)O.NCCCC[C@H](N)C(=O)O

- pKa [15]: 6.94
SMILES: c1cnc2cc[nH]c2c1

- pKa [15]: 8.26
SMILES: c1cc2[nH]ccc2cn1
